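Briefly, cells in 96-well plates were exposed to five compound concentrations for 48 h, and endpoints were estimated by linear interpolation. The concentration for 50% growth inhibition is given as GI50. TGI is the concentration that stops growth completely.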
Assays:
Experiment in all cases: growth of human tumour cells (NCI), 48 h
[1] = test system: OVCAR-4 ovarian
[2] = test system: HL-60(TB) leukemia
[3] = test system: SNB-19 CNS
[4] = test system: SK-MEL-5 melanoma
[5] = test system: 786-0 renal
[6] = test system: MDA-MB-435
[7] = test system: A549 NSCLC
[8] = test system: UO-31 renal
[9] = test system: BT-549 breast
[10] = test system: CCRF-CEM leukemia

Row | Structure (SMILES) | GI50 [1] | TGI [1] | GI50 [2] | TGI [2] | GI50 [3] | TGI [3] | GI50 [4] | TGI [4] | GI50 [5] | TGI [5] | GI50 [6] | TGI [6] | GI50 [7] | TGI [7] | GI50 [8] | TGI [8] | GI50 [9] | TGI [9] | TGI [10] | GI50 [10]
1 | COc1c(N2CCN(CN3C(=O)C(=O)c4cc(Cl)ccc43)C(C)C2)c(F)cc2c(=O)c(C(=O)O)cn(C3CC3)c12 (stereo not drawn) | 55.5 µM | > 100 µM | 7.29 µM | > 100 µM | 92.2 µM | > 100 µM | 15.6 µM | 34.8 µM | > 100 µM | > 100 µM | 17.2 µM | 36.3 µM | 49.4 µM | > 100 µM | > 100 µM | > 100 µM | 37.3 µM | > 100 µM | – | –
2 | CN(C)c1cccc(F)c1C(=O)NC(=O)Nc1ccc(Cl)cc1 | – | > 100 µM | – | 18.1 µM | – | > 100 µM | – | > 100 µM | – | > 100 µM | – | 3.44 µM | – | > 100 µM | – | > 100 µM | – | > 100 µM | – | –
3 | O=C(O)c1c(Br)c(Br)c(Br)c(Br)c1C1c2ccc(O)cc2Oc2cc(O)ccc21 | – | > 100 µM | – | 30.1 µM | – | > 100 µM | – | > 100 µM | – | > 100 µM | – | > 100 µM | – | > 100 µM | – | > 100 µM | – | > 100 µM | – | –
4 | N#CC1=C(O)NC(O)=C(C#N)C1c1ccc(C2C(C#N)=C(O)NC(O)=C2C#N)cc1 | – | > 100 µM | – | 75.3 µM | – | > 100 µM | – | > 100 µM | – | > 100 µM | – | – | – | > 100 µM | – | > 100 µM | – | – | > 100 µM | –
5 | COc1ccc(-c2csc(NC(=O)CN3CCN(c4cc5c(cc4F)c(=O)c(C(=O)O)cn5C4CC4)CC3)n2)cc1 | – | – | – | – | 4.1 µM | > 100 µM | – | – | 3.6 µM | 31.1 µM | 3.39 µM | > 100 µM | 3.47 µM | > 100 µM | 3.37 µM | > 100 µM | 3.03 µM | > 100 µM | > 100 µM | 3.59 µM
6 | Cl.Fc1c[c-]c(-c2ccccn2)c(F)c1.[Pt].c1ccc([PH+](C[PH+](c2ccccc2)c2ccccc2)c2ccccc2)cc1 | 0.267 µM | 0.927 µM | 0.233 µM | 0.67 µM | 0.343 µM | 1.32 µM | – | – | 0.211 µM | 0.468 µM | 0.233 µM | 0.574 µM | 0.206 µM | 1.34 µM | – | – | – | – | – | –
7 | COc1cc(C)c2sc3ccccc3c(=O)c2c1NCCN(C)C | 8.08 µM | 20.9 µM | 4.68 µM | 16.3 µM | 12.9 µM | 27.2 µM | 1.67 µM | 3.08 µM | 8.34 µM | 22.2 µM | 2.91 µM | 10.6 µM | 4.05 µM | 15.7 µM | 3.46 µM | 16.1 µM | 12.5 µM | 25.4 µM | – | –
8 | NC(=O)NC1C(C(=O)O)N(Cc2ccccc2)C(=O)N1Cc1ccccc1 (stereo not drawn) | – | > 100 µM | – | > 100 µM | – | > 100 µM | – | > 100 µM | – | > 100 µM | – | – | – | > 100 µM | – | > 100 µM | – | – | > 100 µM | –
9 | CCOc1ccc2c(c1)c(CC(=O)O)cn2C | – | – | – | > 100 µM | – | > 100 µM | – | – | – | > 100 µM | – | > 100 µM | – | > 100 µM | – | > 100 µM | – | > 100 µM | > 100 µM | –
10 | Cc1ccc(C2NC(=O)c3ccccc3N2)c(C)c1 (stereo not drawn) | – | > 59.7 µM | – | 1.61 µM | – | > 40.8 µM | – | > 39.5 µM | – | 97.5 µM | – | 1.19 µM | – | > 100 µM | – | > 100 µM | – | – | > 100 µM | –
11 | Cn1cc(C(=O)c2ccccc2)cc(C(=O)c2ccccc2)c1=O | – | > 100 µM | – | > 100 µM | – | > 100 µM | – | > 100 µM | – | > 100 µM | – | – | – | > 100 µM | – | > 100 µM | – | – | > 100 µM | –
12 | COCCOCCOCCOc1cccc2c1C(=O)c1cccc(OCCOCCOCCOC)c1C2=O | – | > 100 µM | – | > 100 µM | – | > 100 µM | – | > 100 µM | – | > 100 µM | – | – | – | > 100 µM | – | – | – | – | > 100 µM | –
13 | CC(=O)c1ccc(NC(=O)C(=O)C(C#N)CC(C)(C)C=O)cc1 (stereo not drawn) | – | > 100 µM | – | > 100 µM | – | > 100 µM | – | > 100 µM | – | > 100 µM | – | – | – | > 100 µM | – | > 100 µM | – | – | > 100 µM | –
14 | CCCCCCCCCCCc1c(O)c(=O)c2c(oc3c(=O)c(CCCCCCCCCCC)c(O)c(=O)c3n2-c2ccc(N(C)C)cc2)c1=O | – | 30.7 µM | – | 90.4 µM | – | 58.9 µM | – | 34 µM | – | 33.9 µM | – | – | – | 52.4 µM | – | – | – | – | 60.5 µM | –
15 | O=c1c2cc3c(cc2c2cccc4c2n1CCC4)OCO3 | – | > 100 µM | – | > 100 µM | – | > 100 µM | – | > 100 µM | – | > 100 µM | – | – | – | > 100 µM | – | > 100 µM | – | – | > 100 µM | –
16 | O=C1CC/C(=C/COc2cc(=O)oc3ccccc23)O1 | 1.62 µM | 14.4 µM | – | – | 10.9 µM | 26.7 µM | 16.8 µM | 33.1 µM | 2.54 µM | 15.9 µM | 7.11 µM | 22.1 µM | 16.4 µM | 30.8 µM | 7.65 µM | 21.2 µM | 11.5 µM | 24.7 µM | 21.5 µM | 3.1 µM
17 | CC(=O)NC(C=O)C(O[C@H](C)C(=O)NC(C)C(=O)NC(CCC(N)=O)C(=O)OCc1ccccc1)C(O)C(O)COC(=O)CCNc1c2ccccc2nc2cccc([N+](=O)[O-])c12 (stereo partly drawn) | – | 25.3 µM | – | 31.8 µM | – | 17.4 µM | – | > 100 µM | – | 18.7 µM | – | – | – | 5.13 µM | – | 35.9 µM | – | – | 34.6 µM | –
18 | Cc1ccc(-n2nnnc2-c2cnc(N3CCOCC3)nc2-c2cccc(C(F)(F)F)c2)cc1 | – | – | 2.34 µM | 17.5 µM | 2.21 µM | > 32.8 µM | 0.275 µM | 3.42 µM | 1.89 µM | > 50 µM | – | – | 2.26 µM | > 50 µM | 1.14 µM | – | 8.3 µM | 31.3 µM | 2.55 µM | 1.1 µM
19 | CC(=O)c1ccc(NC(=O)COC(=O)c2cccc3c(=O)c4ccccc4[nH]c23)cc1 | – | 25.9 µM | – | > 100 µM | – | 68.6 µM | – | > 100 µM | – | > 100 µM | – | – | – | > 100 µM | – | > 100 µM | – | – | > 100 µM | –
20 | COc1ccc(C(=O)C#Cc2c[nH]c(=O)[nH]c2=O)cc1 | – | 33.1 µM | – | 23.3 µM | – | 44.7 µM | – | 27.9 µM | – | 25 µM | – | – | – | > 59.6 µM | – | 35.2 µM | – | – | 10.8 µM | –

Reference: PubChem BioAssay (NCI)
